Results on 21 molecules are retold here after patent publication US12643887B2, “Heterocyclic derivatives with cardiomyocyte proliferation activity for treatment of heart diseases” (Tongji University, priority 2019, dated 2026).

In one assay the target is T1, human HIPK1 (Homo sapiens, UniProt Q86Z02).
T1 construct: Recombinant human HIPK1 (156-555); GST (N); purchased SignalChem H03-11G; host or cells: Sf9 insect cells
Description: HIPK1 enzyme assay (ADP-Glo). Type of assay: biochemical. To be noted: ADP-Glo, ATP 5 μM; read-out: HIPK1 IC50. As for the experimental part: The ability of compounds to inhibit human HIPK1 kinase activities was determined using a commercially available ADP-Glo™ Kinase Assay kit (Promega, Cat #V9102) according to the manufacturer's protocol.
(§1) Recombinant human HIPK1 (156-555) (expressed in Sf9 insect cells with an N-terminal GST tag) was purchased from SignalChem (Cat #H03-11G). Recombinant full length human MBP (expressed in E. Coli cells with an N-terminal GST tag) was purchased from SignalChem (Cat #M42-54G). This assay, run in a 384-well plate format, is a generic method for measuring kinase activities using an ADP-Glo Kinase Assay Kit. The basic assay procedure involves two steps: (1) Enzymatic step: inhibitors are incubated with the kinase and then ATP (included in the ADP-Glo Kinase Assay Kit) and the MBP protein are added to start the enzymatic reaction; (2) Detection step: after the kinase reaction, first ADP-Glo™ Reagent is added to terminate the kinase reaction and deplete the remaining ATP. Second, the Kinase Detection Reagent is added to simultaneously convert ADP to ATP and allow the newly synthesized ATP to be measured using a luciferase/luciferin reaction. The light generated is measured using a luminometer.
Briefly, HIPK1 (4 nM) in the enzymatic buffer solutions (40 mM Tris, pH 7.5, 20 mM MgCl2, 0.1 mg/ml BSA, 50 μM DTT) were mixed with various concentrations of inhibitors (dissolved in 100% DMSO). These solutions were incubated for 30 minutes at 25° C., and subsequently a mixture of substrate peptide and ATP was added with the final peptide and ATP concentrations at 0.05 mg/ml and 5 μM, respectively. The final reaction mixture of enzyme-substrate-ATP-compound was incubated for 90 minutes at 25° C.
(§2) Afterwards ADP-Glo™ Reagent was added and the mixture was incubated at 25° C. for 60 minutes. Then Kinase Detection Reagent was added, and the final mixture was incubated at 25° C. for 60 minutes. The luminescence signal of the final solution was measured on an Envision instrument (PerkinElmer). The percent (%) inhibition at each concentration of a compound is calculated relative to the luminescence signal in the Max and Min control wells contained within each assay plate. […] The concentrations and percent inhibition values for a test compound are plotted and the concentration of the compound required to achieve 50% inhibition (IC50) is determined with a four-parameter logistic dose response equation.

Another assay deals with T2, human GSK3 beta (Homo sapiens, UniProt P49841).
T2 construct: Recombinant full-length human GSK3 beta (expressed in Sf9 insect cells with an N-terminal His tag); His (N); purchased SignalChem G09-10H; host or cells: Sf9 insect cells
Description: GSK3 beta enzyme assay (ADP-Glo). Type of assay: biochemical. To be noted: ATP 25 μM, read-out: GSK3b IC50. Here is the method:
1. GSK3 Beta Enzyme Assay
The ability of compounds to inhibit human GSK3 beta kinase activities was determined using a commercially available ADP-Glo™ Kinase Assay kit (Promega, Cat #V9102) according to the manufacturer's protocol. The ADP-Glo™ Kinase Assay is a luminescent ADP detection assay that provides a universal, homogeneous, high-throughput screening method to measure kinase activity by quantifying the amount of ADP produced during a kinase reaction. The ADP-Glo™ Kinase Assay can be used to monitor the activity of virtually any ADP-generating enzymes (e.g., kinases or ATPases).
as §1, with “Recombinant full-length” for “Recombinant”, “GSK3 beta” for “HIPK1 (156-555)”, “His” for “GST”, “#G09-10H). The GSK3 substrate peptide (sequence: […](pS)EDEEE)” for “#H03-11G). Recombinant full length human MBP (expressed in E. Coli cells with an N-terminal GST tag)”, “#G50-58).” for “#M42-54G).”, “GSK3 substrate peptide” for “MBP protein”
Briefly, GSK3 beta (4 nM) in the enzymatic buffer solutions (40 mM Tris, pH 7.5, 20 mM MgCl2, 0.1 mg/ml BSA, 50 μM DTT) were mixed with various concentrations of inhibitors (dissolved in 100% DMSO). These solutions were incubated for 30 minutes at 25° C., and subsequently a mixture of substrate peptide and ATP was added with the final peptide and ATP concentrations at 13 μM and 25 μM, respectively. The final reaction mixture of enzyme-substrate-ATP-compound was incubated for 60 minutes at 25° C.
as §2, with “added” for “added,”
(In ADP-Glo the light output rises with the ADP produced.)

T2 sequence (P49841 whole entry): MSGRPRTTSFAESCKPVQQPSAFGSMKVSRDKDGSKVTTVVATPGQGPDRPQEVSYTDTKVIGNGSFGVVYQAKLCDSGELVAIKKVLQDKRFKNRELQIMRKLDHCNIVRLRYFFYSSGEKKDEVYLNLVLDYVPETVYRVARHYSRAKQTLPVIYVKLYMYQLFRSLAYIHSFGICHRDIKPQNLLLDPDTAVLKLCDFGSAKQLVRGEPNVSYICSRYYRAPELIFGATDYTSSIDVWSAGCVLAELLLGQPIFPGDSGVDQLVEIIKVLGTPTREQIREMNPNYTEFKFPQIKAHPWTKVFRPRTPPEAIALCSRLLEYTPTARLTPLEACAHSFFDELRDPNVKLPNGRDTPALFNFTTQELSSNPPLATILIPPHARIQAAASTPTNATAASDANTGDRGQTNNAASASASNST
T1 sequence (Q86Z02 156-555): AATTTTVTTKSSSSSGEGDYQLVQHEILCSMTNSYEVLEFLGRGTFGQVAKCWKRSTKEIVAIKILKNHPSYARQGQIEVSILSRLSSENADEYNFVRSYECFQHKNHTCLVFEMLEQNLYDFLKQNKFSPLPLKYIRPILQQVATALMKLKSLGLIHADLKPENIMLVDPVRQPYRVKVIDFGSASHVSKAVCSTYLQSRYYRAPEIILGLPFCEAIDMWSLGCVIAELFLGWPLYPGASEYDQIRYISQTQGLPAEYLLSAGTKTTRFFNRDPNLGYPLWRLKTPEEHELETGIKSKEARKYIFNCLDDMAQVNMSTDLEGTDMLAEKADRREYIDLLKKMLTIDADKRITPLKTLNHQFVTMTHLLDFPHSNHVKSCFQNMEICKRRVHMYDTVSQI

Usually IC50 stands for the concentration at which inhibition is half-maximal. Consider `O=C1NC(N(CC2CC2)c2ccc3ncsc3c2)=N/C1=C\c1ccc2ncsc2c1` [Example 105, (Z)-2-(benzo[d]thiazol-6-yl(cyclopropylmethyl)amino)-5-(benzo[d]thiazol-6-ylmethylene)-3,5-dihydro-4H-imidazol-4-one], for which the half-maximal inhibitory concentration (IC50) on human HIPK1 and on human GSK3 beta was greater than 10 µM in each case.
Consider `O=C1NC(Nc2ccc3ncsc3c2)=N/C1=C\c1ccc2nc[nH]c2c1` [Example 76, (Z)-5-((1H-benzo[d]imidazol-6-yl)methylene)-2-(benzo[d]thiazol-6-ylamino)-3,5-dihydro-4H-imidazol-4-one], for which the IC50 on human HIPK1 and on human GSK3 beta was 0.1 to 1 µM throughout.
With `O=C1NC(Nc2ccc3ncsc3c2)=NC1Cc1ccc2ncsc2c1` (stereo not drawn) [Example 102, 2-(benzo[d]thiazol-6-ylamino)-5-(benzo[d]thiazol-6-ylmethyl)-3,5-dihydro-4H-imidazol-4-one], the figures for the half-maximal inhibitory concentration (IC50) on human HIPK1 and on human GSK3 beta were 0.1 to 1 µM and greater than 10 µM, respectively.
The like results for `CN(C1=N/C(=C\c2ccc3c(c2)OCCO3)C(=O)N1)c1ccccc1` [Example 8, (Z)-5-((2,3-dihydrobenzo[b][1,4]dioxin-6-yl)methylene)-2-(methyl(phenyl)amino)-3,5-dihydro-4H-imidazol-4-one] were, in that order, greater than 10 µM and greater than 10 µM.
`CN(C1=N/C(=C\c2ccc3c(c2)OCO3)C(=O)N1)c1ccccc1` [Example 1, (Z)-5-(benzo[d][1,3]dioxol-5-ylmethylene)-2-(methyl(phenyl)amino)-3,5-dihydro-4H-imidazol-4-one]: the IC50 on human HIPK1 was greater than 10 µM.
On to `O=C1NC(N(CC2CC2)c2ccccc2)=N/C1=C\c1ccc2c(c1)OCCO2` [Example 39, (Z)-2-((cyclopropylmethyl)(phenyl)amino)-5-((2,3-dihydrobenzo[b][1,4]dioxin-6-yl)methylene)-3,5-dihydro-4H-imidazol-4-one], for which the IC50 on human HIPK1 and at human GSK3 beta was greater than 10 µM each time.
With `O=C1NC(Nc2ccc3ncsc3c2)=N/C1=C\c1ccc2c(c1)OCO2` [Example 47, (Z)-5-(benzo[d][1,3]dioxol-5-ylmethylene)-2-(benzo[d]thiazol-6-ylamino)-3,5-dihydro-4H-imidazol-4-one], the IC50 on human HIPK1 and on human GSK3 beta was greater than 10 µM in each case.
Turning to `O=C1NC(Nc2ccc3ncsc3c2)=N/C1=C\c1ccc2ncsc2c1` [Example 48, (Z)-2-(benzo[d]thiazol-6-ylamino)-5-(benzo[d]thiazol-6-ylmethylene)-3,5-dihydro-4H-imidazol-4-one], the concentration for half-maximal inhibition (IC50) was 0.1 to 1 µM at human HIPK1 and greater than 10 µM on human GSK3 beta.
As to `O=C1NC(Nc2ccccc2)=N/C1=C\c1ccc2cc[nH]c2c1` [Example 73, (Z)-5-((1H-indol-6-yl)methylene)-2-(phenylamino)-3,5-dihydro-4H-imidazol-4-one], the IC50 on human HIPK1 and at human GSK3 beta was greater than 10 µM each time.
Take `Cn1cnc2cc(NC3=N/C(=C\c4ccc5ncsc5c4)C(=O)N3)ccc21` [Example 61, (Z)-5-(benzo[d]thiazol-6-ylmethylene)-2-((1-methyl-1H-benzo[d]imidazol-5-yl)amino)-3,5-dihydro-4H-imidazol-4-one]: the IC50 at human HIPK1 and at human GSK3 beta was 0.1 to 1 µM in each case.
As for `O=C1/C(=C/c2ccc3ncsc3c2)N=C(N(Cc2ccccc2)c2ccccc2)N1Cc1ccccc1` [Example 42, (Z)-5-(benzo[d]thiazol-6-ylmethylene)-3-benzyl-2-(benzyl(phenyl)amino)-3,5-dihydro-4H-imidazol-4-one], the concentration for half-maximal inhibition (IC50) at human HIPK1 and at human GSK3 beta was greater than 10 µM each time.
For `O=C1NC(Nc2ccc3[nH]ccc3c2)=N/C1=C\c1ccc2ncsc2c1` [Example 69, (Z)-2-((1H-indol-5-yl)amino)-5-(benzo[d]thiazol-6-ylmethylene)-3,5-dihydro-4H-imidazol-4-one], the IC50 on human HIPK1 and at human GSK3 beta was 0.1 to 1 µM throughout.
As for `CN(CCN1CCOCC1)C1=N/C(=C\c2ccc3c(c2)OCO3)C(=O)N1` [Example 20, (Z)-5-(benzo[d][1,3]dioxol-5-ylmethylene)-2-(methyl(2-morpholinoethyl)amino)-3,5-dihydro-4H-imidazol-4-one], the IC50 on human HIPK1 was greater than 10 µM; on human GSK3 beta, 1 to 10 µM.
For `CN(CC1CC1)C1=N/C(=C\c2ccc3ncsc3c2)C(=O)N1` [Example 33, (Z)-5-(benzo[d]thiazol-6-ylmethylene)-2-((cyclopropylmethyl)(methyl)amino)-3,5-dihydro-4H-imidazol-4-one], in that order: greater than 10 µM and greater than 10 µM.
The like results for `CN(CC1CC1)C1=N/C(=C\c2ccc3c(c2)OCCO3)C(=O)N1` [Example 19, (Z)-2-((cyclopropylmethyl)(methyl)amino)-5-((2,3-dihydrobenzo[b][1,4]dioxin-6-yl)methylene)-3,5-di hydro-4H-imidazol-4-one] were, in that order, greater than 10 µM and greater than 10 µM.
For `O=C1NC(Nc2ccccc2)=N/C1=C\c1ccc2ncccc2c1` [Example 53, (Z)-2-(phenylamino)-5-(quinolin-6-ylmethylene)-3,5-dihydro-4H-imidazol-4-one], in that order: greater than 10 µM and greater than 10 µM.
Turning to `CC(C)NC1=N/C(=C\c2ccc3scnc3c2)C(=O)N1` [Example 49, (Z)-5-(benzo[d]thiazol-5-ylmethylene)-2-(isopropylamino)-3,5-dihydro-4H-imidazol-4-one], the 50% inhibitory concentration (IC50) on human HIPK1 and on human GSK3 beta was greater than 10 µM each time.
`O=C1NC(NCC2CC2)=N/C1=C\c1ccc2ncsc2c1` [Example 34, (Z)-5-(benzo[d]thiazol-6-ylmethylene)-2-((cyclopropylmethyl)amino)-3,5-dihydro-4H-imidazol-4-one]: the IC50 on human HIPK1 and at human GSK3 beta was 1 to 10 µM in each case.
In the case of `O=C1NC(Nc2ccc3ncsc3c2)=N/C1=C\c1ccc2cc[nH]c2c1` [Example 63, (Z)-5-((1H-indol-6-yl)methylene)-2-(benzo[d]thiazol-6-ylamino)-3,5-dihydro-4H-imidazol-4-one], the IC50 at human HIPK1 and at human GSK3 beta was greater than 10 µM in each case.
On to `CN1C(=O)/C(=C/c2ccc3c(c2)OCO3)N=C1N(C)c1ccccc1` [Example 3, (Z)-5-(benzo[d][1,3]dioxol-5-ylmethylene)-3-methyl-2-(methyl(phenyl)amino)-3,5-dihydro-4H-imidazol-4-one], for which the IC50 at human HIPK1 is greater than 10 µM.
Still for that read-out and setting: with `O=C1/C(=C/c2ccc3c(c2)OCO3)N=C(N(Cc2ccccc2)c2ccccc2)N1Cc1ccccc1` [Example 2, (Z)-5-(benzo[d][1,3]dioxol-5-ylmethylene)-3-benzyl-2-(benzyl(phenyl)amino)-3,5-dihydro-4H-imidazol-4-one] the figure was greater than 10 µM.
